The source of these data is US20250059164A1, “IRAK DEGRADERS AND USES THEREOF” (Kymera Therapeutics, Inc., priority 2023, published 2025).

The structures appear in SMILES notation. Some results are limits rather than exact numbers.

The nature of data set [1]: Rodent pharmacokinetics (rat PK). The note with it: po, dosed intravenously or orally by gavage, plasma, read-out: F % (bioavailability). It is filed as in vivo. The method, then:
All studies related to handling, care, and treatment of rats in the study were performed according to the guidelines approved by the Institutional Animal Care and Use Committee (IACUC). All rats had access to food and water ad libitum. Rats were dosed intravenously or orally by gavage. Whole blood was collected from the jugular vein immediately prior to dosing and at 5 (intravenously administered drugs only), 15, and 30 min and 1, 2, 4, 8, and 24 h after drug administration. After sampling, whole blood was centrifuged at 4,000×g for 5 min at 4° C. to obtain plasma.
The letter codes for bioavailability (F %) include: A (≥5%) and B (≤5%).

In a further data set the target is T1, IRAK4 (Homo sapiens, UniProt Q9NWZ3).
T1 construct: endogenous in cells; host or cells: OCI-LY10
T1 sequence (Q9NWZ3 1-460): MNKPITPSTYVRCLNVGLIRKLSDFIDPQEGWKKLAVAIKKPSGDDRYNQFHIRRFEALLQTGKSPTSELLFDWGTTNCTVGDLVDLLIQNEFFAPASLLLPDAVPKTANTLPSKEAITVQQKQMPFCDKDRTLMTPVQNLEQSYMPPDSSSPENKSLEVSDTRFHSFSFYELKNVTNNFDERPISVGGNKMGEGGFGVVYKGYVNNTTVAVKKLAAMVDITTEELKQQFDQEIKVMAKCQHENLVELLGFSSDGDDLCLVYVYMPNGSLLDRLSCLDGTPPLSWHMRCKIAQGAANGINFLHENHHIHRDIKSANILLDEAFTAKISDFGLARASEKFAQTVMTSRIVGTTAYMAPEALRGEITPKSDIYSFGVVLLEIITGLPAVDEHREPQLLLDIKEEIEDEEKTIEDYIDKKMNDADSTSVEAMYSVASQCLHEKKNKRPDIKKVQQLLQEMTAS
The data set can be described thus: IRAK4 MSD degradation in OCI-LY10. It is filed as cell-based. Particulars: OCI-LY10 cells, 24 hrs, Meso Scale Discovery. An outline of the steps:
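OCI-LY10 cells treated 4 to 24 hours at 37° C. with 8-dose 1:3 series, top 1 to 10 μM. IRAK4 in lysates quantified by MSD sandwich immunoassay (mouse capture, rabbit detection, SULFO-TAG anti-rabbit). DC50 from three-parameter logistic fit.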

For `COc1cn2nc([C@H]3CC[C@H](CN(C)[C@H]4CCN(c5cccc6c5n(C)c(=O)n6C5CCC(=O)NC5=O)C[C@H]4F)CC3)cc2cc1NC(=O)c1cncc(C(F)(F)F)n1` (single isomer, unassigned) [I-219], the bioavailability in data set [1] was ≤ 5%.

With `CN(C[C@H]1CC[C@H](n2cc(NC(=O)c3cnn4ccc(N5CCCC5)nc34)c(C(F)F)n2)CC1)[C@H]1CCN(c2cccc3c2n(C)c(=O)n3C2CCC(=O)NC2=O)C[C@H]1F` (single isomer, unassigned) [I-21], in data set [1], the bioavailability was ≤ 5%.

In the case of `COc1cn2nc([C@H]3CC[C@H](CN4CC[C@@H](c5cccc6c5n(C)c(=O)n6C5CCC(=O)NC5=O)[C@H](F)C4)CC3)cc2cc1NC(=O)c1cncc(C(F)(F)F)n1` (some centres unmarked) [I-166], the bioavailability in data set [1] is ≤ 5%.

Consider `CN(C[C@H]1CC[C@H](c2nc3cc(C(C)(C)O)c(NC(=O)c4cccc(C(F)(F)F)c4)cc3s2)CC1)[C@H]1CCN(c2cccc3c2n(C)c(=O)n3C2CCC(=O)NC2=O)C[C@@H]1F` (single isomer, unassigned) [I-177], for which the bioavailability in data set [1] is ≥ 5%.

Consider `Cn1c(=O)n(C2CCC(=O)NC2=O)c2cccc([C@H]3C[C@H](COC4CCN(C[C@H]5CC[C@H](n6cc(NC(=O)c7cnn8ccc(N9C[C@H]%10C[C@@H]9CO%10)nc78)c(C(F)F)n6)CC5)CC4)C3)c21` (some centres unmarked) [I-267], for which the bioavailability in data set [1] was ≤ 5%.

Take `CN(C[C@H]1CC[C@H](c2nc3cc(C(C)(C)O)c(NC(=O)c4cncc(C(F)(F)F)c4)cc3s2)CC1)[C@H]1CCN(c2cccc3c2n(C)c(=O)n3C2CCC(=O)NC2=O)C[C@@H]1F` (single isomer, unassigned) [I-160]: the bioavailability in data set [1] is ≥ 5%.

For `Cn1c(=O)n(C2CCC(=O)NC2=O)c2cccc(N3CC[C@H](CN4CCN(C[C@H]5CC[C@H](n6cc(NC(=O)c7cnn8ccc(N9C[C@H]%10C[C@@H]9CO%10)nc78)c(C(F)F)n6)CC5)CC4)C3)c21` (some centres unmarked) [I-114], in data set [1], the bioavailability is ≤ 5%.

Turning to `CN(C[C@H]1CC[C@H](c2nc3cc(C(C)(C)O)c(NC(=O)c4cccc(C(F)(F)F)n4)cc3o2)CC1)[C@H]1CCN(c2cccc3c2n(C)c(=O)n3C2CCC(=O)NC2=O)C[C@H]1F` (some centres unmarked) [I-178], the bioavailability in data set [1] is ≥ 5%.

Take `CN(C[C@H]1CC[C@H](c2nc3cc(C(C)(C)O)c(NC(=O)c4cccc(C(F)(F)F)c4)cc3s2)CC1)[C@@H]1CCN(c2cccc3c2n(C)c(=O)n3C2CCC(=O)NC2=O)C[C@H]1F` (single isomer, unassigned) [I-176]: in data set [1], the bioavailability is ≥ 5%.

As to `COc1ccc2c(c1N1CC3(CCN(C[C@H]4CC[C@H](n5cc6cc(NC(=O)c7cncc(C#N)c7)c(C(C)(C)O)cc6n5)CC4)CC3(F)F)C1)n(C)c(=O)n2[C@H]1CCC(=O)NC1=O` (single isomer, unassigned) [I-234], the DC50 on IRAK4 is < 10 nM.

In the case of `CN(C[C@H]1CC[C@H](n2cc(NC(=O)c3cnn4ccc(N5CCCC5)nc34)c(C(F)F)n2)CC1)[C@H]1CCN(c2cccc3c2n(C)c(=O)n3C2CCC(=O)NC2=O)C[C@@H]1F` (some centres unmarked) [I-22], on IRAK4, the DC50 is < 10 nM.

For `Cc1nn(C2CCC(=O)NC2=O)c2cccc(N3CCN(C[C@@H]4COC5(C4)CN(C[C@H]4CC[C@H](n6cc(NC(=O)c7cnn8ccc(N9C[C@H]%10C[C@@H]9CO%10)nc78)c(C(F)F)n6)CC4)C5)CC3)c12` (some centres unmarked) [I-42], the DC50 at IRAK4 was < 10 nM.

`Cn1c(=O)n([C@H]2CCC(=O)NC2=O)c2ccc(F)c([C@@H]3CCN(C[C@H]4CC[C@H](n5cc6cc(NC(=O)c7cncc(C#N)c7)c(C(C)(C)O)cc6n5)CC4)CC3(F)F)c21` (single isomer, unassigned) [I-232]: the DC50 at IRAK4 is < 10 nM.

With `CN(C[C@H]1CC[C@H](n2cc3cc(NC(=O)c4cccc(C(F)(F)F)n4)c(C(C)(C)O)cc3n2)CC1)[C@@H]1CCN(c2cccc3c2n(C)c(=O)n3C2CCC(=O)NC2=O)C[C@@H]1F` (some centres unmarked) [I-69], the DC50 at IRAK4 is < 10 nM.

For `CN(C[C@H]1CC[C@H](n2cc3cc(NC(=O)c4cccc(C(F)(F)F)n4)ncc3n2)CC1)[C@H]1CCN(c2cccc3c2n(C)c(=O)n3C2CCC(=O)NC2=O)C[C@H]1F` (some centres unmarked) [I-34], on IRAK4, the DC50 is < 10 nM.

Regarding `COc1cc(C(=O)Nc2ccc3nn([C@H]4CC[C@H](CN5CCC6(CCN(c7cccc8c7n(C)c(=O)n8C7CCC(=O)NC7=O)CC6)C(F)(F)C5)CC4)cc3c2)nc(C(F)(F)F)c1` (some centres unmarked) [I-398], the DC50 on IRAK4 is > 200 nM.

As to `CN(C[C@H]1CC[C@H](c2nc3cc(C(C)(C)O)c(NC(=O)c4cccc(C(F)(F)F)n4)cc3o2)CC1)[C@H]1CCN(c2cccc3c2n(C)c(=O)n3C2CCC(=O)NC2=O)C[C@@H]1F` (some centres unmarked) [I-138], the DC50 at IRAK4 is < 10 nM.

`CN(C[C@H]1CC[C@H](n2cc(NC(=O)c3cnn4cccnc34)c(C(F)F)n2)CC1)[C@@H]1CCN(c2cccc3c2n(C)c(=O)n3C2CCC(=O)NC2=O)CC1(F)F` (some centres unmarked) [I-202] displayed a DC50 at IRAK4 of 10 to 100 nM.

On to `Cc1cc(C(=O)Nc2ccc3nn([C@H]4CC[C@H](CN5CCC6(CCN(c7cccc8c7n(C)c(=O)n8C7CCC(=O)NC7=O)CC6)C(F)(F)C5)CC4)cc3c2)nc(C(F)(F)F)c1` (some centres unmarked) [I-403], for which the DC50 on IRAK4 is > 200 nM.

`COc1cc2nn([C@H]3CC[C@H](CN(C)[C@@H]4CCN(c5cccc6c5n(C)c(=O)n6C5CCC(=O)NC5=O)C[C@@H]4F)CC3)cc2cc1NC(=O)c1cccc(C(F)(F)F)n1` (some centres unmarked) [I-81]: on IRAK4, the DC50 is < 10 nM.

On IRAK4, `Cn1c(=O)n(C2CCC(=O)NC2=O)c2cccc(N3CC(COC[C@H]4CC[C@H](n5cc6cc(NC(=O)c7cccc(C(F)(F)F)c7)ccc6n5)CC4)C3)c21` (some centres unmarked) [I-126] displayed a DC50 of 10 to 100 nM.

Consider `Cc1nn(C2CCC(=O)NC2=O)c2cccc(N3CC(O)(CN4CCN(C[C@H]5CC[C@H](n6cc(NC(=O)c7cnn8ccc(N9C[C@H]%10C[C@@H]9CO%10)nc78)c(C(F)F)n6)CC5)CC4)C3)c12` (some centres unmarked) [I-19], for which the DC50 at IRAK4 is < 10 nM.

With `CN(C[C@H]1CC[C@H](c2cn3cc(NC(=O)c4cncc(C(F)(F)F)n4)ccc3n2)CC1)[C@H]1CCN(c2cccc3c2n(C)c(=O)n3C2CCC(=O)NC2=O)C[C@H]1F` (single isomer, unassigned) [I-285], the DC50 on IRAK4 is < 10 nM.

For the molecule `Cn1nc([C@H]2CCC(=O)NC2=O)c2cccc([C@@H]3CCN(C[C@H]4CC[C@H](n5cc6cc(NC(=O)c7cncc(C#N)c7)c(C(C)(C)O)cc6n5)CC4)CC3(F)F)c21` (single isomer, unassigned) [I-417], on IRAK4, the DC50 is < 10 nM.

Turning to `COc1ccc2c(c1N1CC[C@H](N(C)C[C@H]3CC[C@H](n4cc(NC(=O)c5cnn6cccnc56)c(C(F)F)n4)CC3)C(F)(F)C1)n(C)c(=O)n2C1CCC(=O)NC1=O` (single isomer, unassigned) [I-289], the DC50 on IRAK4 was < 10 nM.

`O=C1CCC(Nc2ccc(N3CC(CO[C@H]4CCN(C[C@H]5CC[C@H](n6cc(NC(=O)c7cnn8ccc(N9C[C@H]%10C[C@@H]9CO%10)nc78)c(C(F)F)n6)CC5)C[C@@H]4F)C3)cc2)C(=O)N1` (single isomer, unassigned) [I-85] yielded a DC50 on IRAK4 of 10 to 100 nM.

For the molecule `Cn1nc(C2CCC(=O)NC2=O)c2cccc(N3CC(O)(CN4CCN(C[C@H]5CC[C@H](n6cc(NC(=O)c7cnn8ccc(N9C[C@H]%10C[C@@H]9CO%10)nc78)c(C(F)F)n6)CC5)CC4)C3)c21` (some centres unmarked) [I-86], at IRAK4, the DC50 is < 10 nM.

Regarding `Cn1c(=O)n([C@H]2CCC(=O)NC2=O)c2cccc(N3CCC4(CCN(C[C@H]5CC[C@H](n6cc7cc(NC(=O)c8cncc(C#N)c8)c(C(C)(C)O)cc7n6)CC5)CC4(F)F)CC3)c21` (single isomer, unassigned) [I-225], at IRAK4, the DC50 is < 10 nM.

Consider `CN(C[C@H]1CC[C@H](n2cc3cc(NC(=O)c4cccc(C(F)(F)F)n4)ccc3n2)CC1)[C@H]1CCN(c2cccc3c2n(C)c(=O)n3C2CCC(=O)NC2=O)C[C@@H]1F` (some centres unmarked) [I-33], for which the DC50 on IRAK4 was in the range of 10 to 100 nM.

Consider `Cc1nn(C2CCC(=O)NC2=O)c2cccc(N3CC(CO[C@@H]4CCN(C[C@H]5CC[C@H](n6cc(NC(=O)c7cnn8ccc(N9C[C@H]%10C[C@@H]9CO%10)nc78)c(C(F)F)n6)CC5)C[C@@H]4F)C3)c12` (some centres unmarked) [I-56], for which the DC50 on IRAK4 was < 10 nM.

In the case of `Cn1nc(C2CCC(=O)NC2=O)c2cccc([C@@H]3CCN(C[C@H]4CC[C@H](n5cc6cc(NC(=O)c7cccc(C(F)(F)F)n7)ccc6n5)CC4)C[C@H]3F)c21` (some centres unmarked) [I-122], on IRAK4, the DC50 was < 10 nM.

With `CN(C[C@H]1CC[C@H](c2cc3cc(NC(=O)c4cncc(C(F)(F)F)n4)ccn3n2)CC1)[C@H]1CCN(c2cccc3c2n(C)c(=O)n3C2CCC(=O)NC2=O)C[C@H]1F` (single isomer, unassigned) [I-212], the 50% degradation concentration (DC50) at IRAK4 fell in the range of 10 to 100 nM.

Turning to `COc1cc2nc(C3CCN(CC4(F)CCN(c5cccc6c5n(C)c(=O)n6C5CCC(=O)NC5=O)CC4)CC3)sc2cc1NC(=O)c1cncc(C#N)c1` (centres unmarked) [I-157], the DC50 at IRAK4 was > 200 nM.

For `Cn1nc(C2CCC(=O)NC2=O)c2cccc([C@H]3CCN(C[C@H]4CC[C@H](n5cc6cc(NC(=O)c7cncc(C(F)(F)F)n7)ccc6n5)CC4)CC3(F)F)c21` (single isomer, unassigned) [I-380], on IRAK4, the DC50 was < 10 nM.

Turning to `CN1C(=O)CCC(n2c(=O)n(C)c3c([C@@H]4CCN(C[C@H]5CC[C@H](n6cc7cc(NC(=O)c8cncc(C(F)(F)F)n8)ccc7n6)CC5)CC4(F)F)cccc32)C1=O` (some centres unmarked) [I-378], the DC50 at IRAK4 is > 200 nM.
